The NIST ThermoML archive (doi:10.1021/je201051q)

Assay: xn = mol fraction of the nth substance listed
Details: isochoric method

C=C(F)C(F)(F)F [2,3,3,3-tetrafluoro-1-propene] + O=C=O
Details	molar volume [m3/mol]
223.07 K, 420.2 kPa, Fluid (supercritical or subcritical phases), x2 = 0.662	0.001227
223.08 K, 197.6 kPa, Fluid (supercritical or subcritical phases), x2 = 0.365	0.002253
223.28 K, 95.7 kPa, Fluid (supercritical or subcritical phases), x2 = 0.16	0.002938
223.62 K, 147.7 kPa, Fluid (supercritical or subcritical phases), x2 = 0.266	0.002569
223.63 K, 312 kPa, Fluid (supercritical or subcritical phases), x2 = 0.574	0.002153
224.2 K, 460.3 kPa, Fluid (supercritical or subcritical phases), x2 = 0.754	0.001747
224.91 K, 61.7 kPa, Fluid (supercritical or subcritical phases), x2 = 0.051	0.002894
225.14 K, 271.4 kPa, Fluid (supercritical or subcritical phases), x2 = 0.48	0.002063
232.92 K, 331.8 kPa, Fluid (supercritical or subcritical phases), x2 = 0.48	0.002063
232.97 K, 252.9 kPa, Fluid (supercritical or subcritical phases), x2 = 0.365	0.002254
232.97 K, 559 kPa, Fluid (supercritical or subcritical phases), x2 = 0.662	0.001227
233 K, 129.7 kPa, Fluid (supercritical or subcritical phases), x2 = 0.16	0.002939
233.01 K, 387.5 kPa, Fluid (supercritical or subcritical phases), x2 = 0.574	0.002154
233.06 K, 576 kPa, Fluid (supercritical or subcritical phases), x2 = 0.754	0.001747
233.09 K, 190.8 kPa, Fluid (supercritical or subcritical phases), x2 = 0.266	0.00257
233.25 K, 86.7 kPa, Fluid (supercritical or subcritical phases), x2 = 0.051	0.002895
242.68 K, 174.3 kPa, Fluid (supercritical or subcritical phases), x2 = 0.16	0.00294
242.84 K, 412.5 kPa, Fluid (supercritical or subcritical phases), x2 = 0.48	0.002064
242.95 K, 711.4 kPa, Fluid (supercritical or subcritical phases), x2 = 0.662	0.001228
242.99 K, 322.1 kPa, Fluid (supercritical or subcritical phases), x2 = 0.365	0.002255
243.03 K, 246 kPa, Fluid (supercritical or subcritical phases), x2 = 0.266	0.002571
243.04 K, 710.6 kPa, Fluid (supercritical or subcritical phases), x2 = 0.754	0.001748
243.07 K, 124.7 kPa, Fluid (supercritical or subcritical phases), x2 = 0.051	0.002896
243.08 K, 479.4 kPa, Fluid (supercritical or subcritical phases), x2 = 0.574	0.002155
252.69 K, 399.3 kPa, Fluid (supercritical or subcritical phases), x2 = 0.365	0.002256
252.82 K, 234.8 kPa, Fluid (supercritical or subcritical phases), x2 = 0.16	0.002942
252.82 K, 504.1 kPa, Fluid (supercritical or subcritical phases), x2 = 0.48	0.002065
252.9 K, 876.2 kPa, Fluid (supercritical or subcritical phases), x2 = 0.662	0.001228
252.95 K, 315.1 kPa, Fluid (supercritical or subcritical phases), x2 = 0.266	0.002572
252.97 K, 179 kPa, Fluid (supercritical or subcritical phases), x2 = 0.051	0.002897
253.03 K, 574.3 kPa, Fluid (supercritical or subcritical phases), x2 = 0.574	0.002156
253.04 K, 842.3 kPa, Fluid (supercritical or subcritical phases), x2 = 0.754	0.001749
262.58 K, 492.3 kPa, Fluid (supercritical or subcritical phases), x2 = 0.365	0.002257
262.8 K, 313 kPa, Fluid (supercritical or subcritical phases), x2 = 0.16	0.002943
262.86 K, 610.6 kPa, Fluid (supercritical or subcritical phases), x2 = 0.48	0.002066
262.94 K, 1044 kPa, Fluid (supercritical or subcritical phases), x2 = 0.662	0.001229
262.95 K, 401.7 kPa, Fluid (supercritical or subcritical phases), x2 = 0.266	0.002573
262.96 K, 686 kPa, Fluid (supercritical or subcritical phases), x2 = 0.574	0.002157
263.01 K, 980.1 kPa, Fluid (supercritical or subcritical phases), x2 = 0.754	0.00175
263.06 K, 253.3 kPa, Fluid (supercritical or subcritical phases), x2 = 0.051	0.002899
272.66 K, 609 kPa, Fluid (supercritical or subcritical phases), x2 = 0.365	0.002258
272.75 K, 412.9 kPa, Fluid (supercritical or subcritical phases), x2 = 0.16	0.002944
272.82 K, 813.7 kPa, Fluid (supercritical or subcritical phases), x2 = 0.574	0.002158
272.83 K, 1223.1 kPa, Fluid (supercritical or subcritical phases), x2 = 0.662	0.001229
272.84 K, 734.4 kPa, Fluid (supercritical or subcritical phases), x2 = 0.48	0.002067
272.93 K, 348.1 kPa, Fluid (supercritical or subcritical phases), x2 = 0.051	0.0029
272.93 K, 509.9 kPa, Fluid (supercritical or subcritical phases), x2 = 0.266	0.002574
272.98 K, 1122.7 kPa, Gas, x2 = 0.754	0.00175
282.56 K, 466.4 kPa, Fluid (supercritical or subcritical phases), x2 = 0.051	0.002901
282.57 K, 537.9 kPa, Fluid (supercritical or subcritical phases), x2 = 0.16	0.002945
282.62 K, 884.2 kPa, Fluid (supercritical or subcritical phases), x2 = 0.48	0.002068
282.63 K, 1179.9 kPa, Gas, x2 = 0.754	0.001751
282.64 K, 1417.7 kPa, Fluid (supercritical or subcritical phases), x2 = 0.662	0.00123
282.69 K, 751.6 kPa, Fluid (supercritical or subcritical phases), x2 = 0.365	0.002259
282.75 K, 641.4 kPa, Fluid (supercritical or subcritical phases), x2 = 0.266	0.002575
282.88 K, 940.5 kPa, Gas, x2 = 0.574	0.002159
292.47 K, 673.8 kPa, Gas, x2 = 0.16	0.002947
292.6 K, 1003.3 kPa, Gas, x2 = 0.48	0.002069
292.67 K, 1237.7 kPa, Gas, x2 = 0.754	0.001752
292.69 K, 1614 kPa, Gas, x2 = 0.662	0.001231
292.7 K, 623 kPa, Fluid (supercritical or subcritical phases), x2 = 0.051	0.002902
292.75 K, 804.6 kPa, Fluid (supercritical or subcritical phases), x2 = 0.266	0.002577
292.85 K, 906.8 kPa, Gas, x2 = 0.365	0.00226
292.91 K, 1004.6 kPa, Gas, x2 = 0.574	0.00216
302.61 K, 742.4 kPa, Gas, x2 = 0.16	0.002948
302.61 K, 1055.6 kPa, Gas, x2 = 0.48	0.00207
302.67 K, 1296 kPa, Gas, x2 = 0.754	0.001753
302.81 K, 736.5 kPa, Gas, x2 = 0.051	0.002904
302.86 K, 1049.3 kPa, Gas, x2 = 0.574	0.002161
302.88 K, 856.1 kPa, Gas, x2 = 0.266	0.002578
302.89 K, 1732.2 kPa, Gas, x2 = 0.662	0.001231
302.96 K, 976.1 kPa, Gas, x2 = 0.365	0.002261
303.05 K, 738 kPa, Gas, x2 = 0.051	0.002904
307.54 K, 758.8 kPa, Gas, x2 = 0.16	0.002949
312.7 K, 1352.4 kPa, Gas, x2 = 0.754	0.001753
312.79 K, 1094.3 kPa, Gas, x2 = 0.574	0.002162
312.82 K, 895.4 kPa, Gas, x2 = 0.266	0.002579
312.84 K, 1814.8 kPa, Gas, x2 = 0.662	0.001232
312.92 K, 1020.4 kPa, Gas, x2 = 0.365	0.002262
312.94 K, 773.7 kPa, Gas, x2 = 0.051	0.002905
313.12 K, 778.4 kPa, Gas, x2 = 0.16	0.002949
313.12 K, 1111.4 kPa, Gas, x2 = 0.48	0.002071
322.6 K, 1062.1 kPa, Gas, x2 = 0.365	0.002263
322.75 K, 808.1 kPa, Gas, x2 = 0.051	0.002906
323.09 K, 811.8 kPa, Gas, x2 = 0.16	0.002951
323.1 K, 934.8 kPa, Gas, x2 = 0.266	0.00258
323.1 K, 1139.4 kPa, Gas, x2 = 0.574	0.002163
323.1 K, 1407.6 kPa, Gas, x2 = 0.754	0.001754
323.1 K, 1898.7 kPa, Gas, x2 = 0.662	0.001232
323.11 K, 1157.2 kPa, Gas, x2 = 0.48	0.002071
333.06 K, 1183.4 kPa, Gas, x2 = 0.574	0.002164
333.07 K, 1106.6 kPa, Gas, x2 = 0.365	0.002264
333.08 K, 844.9 kPa, Gas, x2 = 0.16	0.002952
333.08 K, 972.6 kPa, Gas, x2 = 0.266	0.002581
333.08 K, 1202.8 kPa, Gas, x2 = 0.48	0.002072
333.08 K, 1460.2 kPa, Gas, x2 = 0.754	0.001755
333.08 K, 1979.1 kPa, Gas, x2 = 0.662	0.001233
333.09 K, 843.3 kPa, Gas, x2 = 0.051	0.002907
343.03 K, 1149.4 kPa, Gas, x2 = 0.365	0.002265
343.04 K, 1010.2 kPa, Gas, x2 = 0.266	0.002582
343.04 K, 1227 kPa, Gas, x2 = 0.574	0.002165
343.05 K, 877.5 kPa, Gas, x2 = 0.16	0.002953
343.05 K, 2058.6 kPa, Gas, x2 = 0.662	0.001233
343.06 K, 877.3 kPa, Gas, x2 = 0.051	0.002909
343.07 K, 1512.6 kPa, Gas, x2 = 0.754	0.001756
343.1 K, 1248 kPa, Gas, x2 = 0.48	0.002073
352.97 K, 1292.5 kPa, Gas, x2 = 0.48	0.002074
352.99 K, 909.5 kPa, Gas, x2 = 0.16	0.002954
352.99 K, 1191.4 kPa, Gas, x2 = 0.365	0.002266
352.99 K, 1269.8 kPa, Gas, x2 = 0.574	0.002166
352.99 K, 2136.6 kPa, Gas, x2 = 0.662	0.001234
353 K, 1046.2 kPa, Gas, x2 = 0.266	0.002583
353.02 K, 910.7 kPa, Gas, x2 = 0.051	0.00291
353.02 K, 1564.1 kPa, Gas, x2 = 0.754	0.001756
362.92 K, 943.3 kPa, Gas, x2 = 0.051	0.002911
362.92 K, 1082.5 kPa, Gas, x2 = 0.266	0.002584
362.92 K, 1232.6 kPa, Gas, x2 = 0.365	0.002267
362.94 K, 1311.6 kPa, Gas, x2 = 0.574	0.002167
362.96 K, 941.6 kPa, Gas, x2 = 0.16	0.002956
362.96 K, 1337.1 kPa, Gas, x2 = 0.48	0.002075
362.96 K, 1615.2 kPa, Gas, x2 = 0.754	0.001757
362.97 K, 2214.8 kPa, Gas, x2 = 0.662	0.001234
372.89 K, 973.3 kPa, Gas, x2 = 0.16	0.002957
372.89 K, 1119 kPa, Gas, x2 = 0.266	0.002586
372.92 K, 975.7 kPa, Gas, x2 = 0.051	0.002912
372.92 K, 1354.3 kPa, Gas, x2 = 0.574	0.002167
372.92 K, 1381.3 kPa, Gas, x2 = 0.48	0.002076
372.93 K, 2291.9 kPa, Gas, x2 = 0.662	0.001235
